Measurements taken from patent publication US9469650B2, “Melampomagnolide B derivatives” (BOARD OF TRUSTEES OF THE UNIVERSITY OF ARKANSAS, priority 2013, dated 2016).

Assays:
[1] = system: NCI-H322M; assay: panel of 60 human tumor cell lines, growth inhibition (Non-Small Cell Lung Cancer)
[2] = system: KM12; assay: panel of 60 human tumor cell lines, growth inhibition (Colon Cancer); details: KM12
[3] = system: UACC-62; assay: panel of 60 human tumor cell lines, growth inhibition (Melanoma); details: UACC-62
[4] = system: MDA-MB-435; assay: as above; details: MDA-MB-435
[5] = system: OVCAR-5; assay: panel of 60 human tumor cell lines, growth inhibition (Ovarian Cancer); details: OVCAR-5
[6] = system: MDA-MB-468; assay: panel of 60 human tumor cell lines, growth inhibition (Breast Cancer); details: MDA-MB-468
[7] = system: UACC-257; assay: panel of 60 human tumor cell lines, growth inhibition (Melanoma); details: UACC-257
[8] = system: COLO 205; assay: panel of 60 human tumor cell lines, growth inhibition (Colon Cancer); details: COLO 205
[9] = system: A498; assay: panel of 60 human tumor cell lines, growth inhibition (Renal Cancer); details: A498

SMILES: C=C1C(=O)O[C@H]2[C@H]1CC/C(COC(=O)N1CCC(F)(F)CC1)=C\CC[C@@]1(C)O[C@@H]21 [JVM 2-66]
- GI50 [1]: 13000 nM
- TGI [1]: 2.66E−5
- Percent Growth ([1]; Log10 Concentration −4.0): −92%
- Percent Growth ([1]; Log10 Concentration −5.0): 68%
- Percent Growth ([1]; Log10 Concentration −6.0): 102%
- Percent Growth ([1]; Log10 Concentration −7.0): 99%
- Percent Growth ([1]; Log10 Concentration −8.0): 96%
- GI50 [2]: 8550 nM
- TGI [2]: 2.26E−5
- Percent Growth ([2]; Log10 Concentration −4.0): −85%
- Percent Growth ([2]; Log10 Concentration −5.0): 46%
- Percent Growth ([2]; Log10 Concentration −6.0): 99%
- Percent Growth ([2]; Log10 Concentration −7.0): 97%
- Percent Growth ([2]; Log10 Concentration −8.0): 103%
- GI50 [3]: 2110 nM
- TGI [3]: 6.00E−6
- Percent Growth ([3]; Log10 Concentration −4.0): −94%
- Percent Growth ([3]; Log10 Concentration −5.0): −24%
- Percent Growth ([3]; Log10 Concentration −6.0): 86%
- Percent Growth ([3]; Log10 Concentration −7.0): 94%
- Percent Growth ([3]; Log10 Concentration −8.0): 97%
- GI50 [4]: 464 nM
- TGI [4]: 1.89E−5
- Percent Growth ([4]; Log10 Concentration −4.0): −52%
- Percent Growth ([4]; Log10 Concentration −5.0): 20%
- Percent Growth ([4]; Log10 Concentration −6.0): 30%
- Percent Growth ([4]; Log10 Concentration −7.0): 91%
- Percent Growth ([4]; Log10 Concentration −8.0): 98%
- GI50 [5]: 4250 nM
- TGI [5]: 1.60E−5
- Percent Growth ([5]; Log10 Concentration −4.0): −83%
- Percent Growth ([5]; Log10 Concentration −5.0): 21%
- Percent Growth ([5]; Log10 Concentration −6.0): 99%
- Percent Growth ([5]; Log10 Concentration −7.0): 90%
- Percent Growth ([5]; Log10 Concentration −8.0): 96%
- GI50 [6]: 578 nM
- TGI [6]: 2.65E−6
- Percent Growth ([6]; Log10 Concentration −4.0): −75%
- Percent Growth ([6]; Log10 Concentration −5.0): −48%
- Percent Growth ([6]; Log10 Concentration −6.0): 36%
- Percent Growth ([6]; Log10 Concentration −7.0): 96%
- Percent Growth ([6]; Log10 Concentration −8.0): 88%
- GI50 [7]: 2340 nM
- TGI [7]: 1.02E−5
- Percent Growth ([7]; Log10 Concentration −4.0): −90%
- Percent Growth ([7]; Log10 Concentration −5.0): 1%
- Percent Growth ([7]; Log10 Concentration −6.0): 79%
- Percent Growth ([7]; Log10 Concentration −7.0): 96%
- Percent Growth ([7]; Log10 Concentration −8.0): 94%
- GI50 [8]: 2060 nM
- TGI [8]: 4.17E−6
- Percent Growth ([8]; Log10 Concentration −4.0): −93%
- Percent Growth ([8]; Log10 Concentration −5.0): −62%
- Percent Growth ([8]; Log10 Concentration −6.0): 101%
- Percent Growth ([8]; Log10 Concentration −7.0): 96%
- Percent Growth ([8]; Log10 Concentration −8.0): 102%
- GI50 [9]: 1590 nM
- TGI [9]: 6.87E−6
- Percent Growth ([9]; Log10 Concentration −4.0): −93%
- Percent Growth ([9]; Log10 Concentration −5.0): −13%
- Percent Growth ([9]; Log10 Concentration −6.0): 66%
- Percent Growth ([9]; Log10 Concentration −7.0): 73%
- Percent Growth ([9]; Log10 Concentration −8.0): 84%
